Experimental data reported in ChEMBL document CHEMBL1671627, “Increasing trends in antimicrobial resistance among clinically important anaerobes and Bacteroides fragilis isolates causing nosocomial infections: emerging resistance to carbapenems” (2008).
In brackets after ≈: the same amount, converted by molar mass.

Key:
Bacteroides uniformis [1] = assay: Antibacterial activity against beta-lactamase producing Bacteroides uniformis assessed as resistant isolates by CLSI agar dilution method; type: functional
Fusobacterium varium [2] = assay: Antibacterial activity against Fusobacterium varium by CLSI agar dilution method; type: functional
Bacteroides uniformis [3] = assay: Antibacterial activity against beta-lactamase producing Bacteroides uniformis by CLSI agar dilution method; type: functional
Phocaeicola vulgatus [4] = assay: Antibacterial activity against beta-lactamase producing Bacteroides vulgatus by CLSI agar dilution method; type: functional
[5] = test system: Prevotella melaninogenica; assay: Antibacterial activity against Prevotella melaninogenica assessed as resistant isolates by CLSI agar dilution method; type: functional
Finegoldia magna = assay: Antibacterial activity against beta-lactamase producing Finegoldia magna by CLSI agar dilution method; type: functional
Prevotella buccae [6] = assay: Antibacterial activity against Prevotella buccae assessed as susceptible isolates by CLSI agar dilution method; type: functional, Segatella buccae
Phocaeicola vulgatus [7] = assay: Antibacterial activity against beta-lactamase producing Bacteroides vulgatus assessed as susceptible isolates by CLSI agar dilution method; type: functional
[8] = test system: Prevotella melaninogenica; assay: Antibacterial activity against Prevotella melaninogenica by CLSI agar dilution method; type: functional
[9] = test system: Fusobacterium necrophorum; assay: Antibacterial activity against Fusobacterium necrophorum assessed as resistant isolates by CLSI agar dilution method; type: functional
Bacteroides caccae [10] = assay: Antibacterial activity against beta-lactamase producing Bacteroides caccae assessed as resistant isolates by CLSI agar dilution method; type: functional
Prevotella buccae [11] = assay: Antibacterial activity against Prevotella buccae assessed as resistant isolates by CLSI agar dilution method; type: functional, Segatella buccae
Prevotella intermedia = assay: Antibacterial activity against Prevotella intermedia assessed as resistant isolates by CLSI agar dilution method; type: functional
[12] = test system: Peptoniphilus asaccharolyticus; assay: Antibacterial activity against beta-lactamase producing Peptoniphilus asaccharolyticus by CLSI agar dilution method; type: functional
[13] = test system: Peptoniphilus asaccharolyticus; assay: Antibacterial activity against beta-lactamase producing Peptoniphilus asaccharolyticus assessed as susceptible isolates by CLSI agar dilution method; type: functional
Phocaeicola vulgatus [14] = assay: Antibacterial activity against beta-lactamase producing Bacteroides vulgatus assessed as resistant isolates by CLSI agar dilution method; type: functional
Prevotella buccae [15] = assay: Antibacterial activity against Prevotella buccae by CLSI agar dilution method; type: functional; conditions: Segatella buccae
[16] = test system: Prevotella melaninogenica; assay: Antibacterial activity against Prevotella melaninogenica assessed as susceptible isolates by CLSI agar dilution method; type: functional
Clostridium septicum = assay: Antibacterial activity against beta-lactamase producing Clostridium septicum by CLSI agar dilution method; type: functional
Fusobacterium varium [17] = assay: Antibacterial activity against Fusobacterium varium assessed as resistant isolates by CLSI agar dilution method; type: functional
Prevotella bivia [18] = assay: Antibacterial activity against Prevotella bivia by CLSI agar dilution method; type: functional
[19] = test system: Clostridium paraputrificum; assay: Antibacterial activity against beta-lactamase producing Clostridium paraputrificum by CLSI agar dilution method; type: functional
[20] = test system: Bacteroides thetaiotaomicron; assay: Antibacterial activity against beta-lactamase producing Bacteroides thetaiotaomicron assessed as susceptible isolates by CLSI agar dilution method; type: functional
[21] = test system: Clostridium paraputrificum; assay: Antibacterial activity against beta-lactamase producing Clostridium paraputrificum assessed as susceptible isolates by CLSI agar dilution method; type: functional
Prevotella bivia [22] = assay: Antibacterial activity against Prevotella bivia assessed as susceptible isolates by CLSI agar dilution method; type: functional
Fusobacterium varium [23] = assay: Antibacterial activity against Fusobacterium varium assessed as susceptible isolates by CLSI agar dilution method; type: functional
Clostridium tertium = assay: Antibacterial activity against beta-lactamase producing Clostridium tertium by CLSI agar dilution method; type: functional
Bacteroides caccae [24] = assay: Antibacterial activity against beta-lactamase producing Bacteroides caccae assessed as susceptible isolates by CLSI agar dilution method; type: functional
Fusobacterium nucleatum = assay: Antibacterial activity against Fusobacterium nucleatum assessed as resistant isolates by CLSI agar dilution method; type: functional
Fusobacterium mortiferum = assay: Antibacterial activity against Fusobacterium mortiferum assessed as susceptible isolates by CLSI agar dilution method; type: functional

C[C@@H](O)[C@H]1C(=O)N2C(C(=O)O)=C(S[C@@H]3CN[C@H](C(=O)Nc4cccc(C(=O)O)c4)C3)[C@H](C)[C@H]12
Activity (Bacteroides uniformis [1]): 4%
MIC50 (Fusobacterium varium [2]): 0.06 µg/mL (≈ 0.126 µM)
MIC90 (Fusobacterium varium [2]): 0.12 µg/mL (≈ 0.252 µM)
MIC50 (Bacteroides uniformis [3]): 1 µg/mL (≈ 2.1 µM)
MIC90 (Bacteroides uniformis [3]): 2 µg/mL (≈ 4.21 µM)
MIC50 (Phocaeicola vulgatus [4]): 1 µg/mL (≈ 2.1 µM)
MIC90 (Phocaeicola vulgatus [4]): 2 µg/mL (≈ 4.21 µM)
Activity [5]: 0%
MIC50 (Finegoldia magna): 0.06 µg/mL (≈ 0.126 µM)
MIC90 (Finegoldia magna): 1 µg/mL (≈ 2.1 µM)
Activity (Prevotella buccae [6]): 100%
Activity (Phocaeicola vulgatus [7]): 92%
MIC50 [8]: 0.12 µg/mL (≈ 0.252 µM)
MIC90 [8]: 0.5 µg/mL (≈ 1.05 µM)
Activity [9]: 0%
Activity (Bacteroides caccae [10]): 4%
Activity (Prevotella buccae [11]): 0%
Activity (Prevotella intermedia): 0%
MIC50 [12]: 0.06 µg/mL (≈ 0.126 µM)
MIC90 [12]: 1 µg/mL (≈ 2.1 µM)
Activity [13]: 100%
Activity (Phocaeicola vulgatus [14]): 4%
MIC50 (Prevotella buccae [15]): 0.12 µg/mL (≈ 0.252 µM)
MIC90 (Prevotella buccae [15]): 0.5 µg/mL (≈ 1.05 µM)
Activity [16]: 100%
MIC50 (Clostridium septicum): 0.12 µg/mL (≈ 0.252 µM)
MIC90 (Clostridium septicum): 4 µg/mL (≈ 8.41 µM)
Activity (Fusobacterium varium [17]): 0%
MIC50 (Prevotella bivia [18]): 0.12 µg/mL (≈ 0.252 µM)
MIC90 (Prevotella bivia [18]): 0.5 µg/mL (≈ 1.05 µM)
MIC50 [19]: 0.12 µg/mL (≈ 0.252 µM)
MIC90 [19]: 4 µg/mL (≈ 8.41 µM)
Activity [20]: 97%
Activity [21]: 96%
Activity (Prevotella bivia [22]): 100%
Activity (Fusobacterium varium [23]): 100%
MIC50 (Clostridium tertium): 0.12 µg/mL (≈ 0.252 µM)
MIC90 (Clostridium tertium): 4 µg/mL (≈ 8.41 µM)
Activity (Bacteroides caccae [24]): 92%
Activity (Fusobacterium nucleatum): 0%
Activity (Fusobacterium mortiferum): 100%
